Measurements from PMC6540907, “The nuclear export inhibitor aminoratjadone is a potent effector in extracellular-targeted drug conjugates” (Chemical Science, 2019).
Like-named read-outs stand apart in the source and are kept apart here. Starred links: 1 amine or outer side, 2 acyl side, 3 side chain; linkers in the order of their positions; H or OH if unused. Non-standard residues stand in square brackets, D forms with d. Residues, ends and D or L forms follow the SMILES beside them. Groups on a side chain read outwards from the residue. *: point of attachment. X2 = C/C=C/[C@@H]1O[C@H]([C@@H](/C=C/C=C(\C)C[C@@H](C)/C=C(C)\C=C\[C@H]2CC=CC(=O)O2)N*)C[C@@H](O)[C@@H]1C; X1 = O=C([C@@H](CCCn1nnc2c1CCC1C(CC2)C1COC(=O)[*:3])N[*:1])[*:2]; PABC = O=C(OCc1ccc(N[*:1])cc1)[*:2]; Cit = NC(=O)NCCC[C@H](N)C(=O)O; pGlu = O=C1CC[C@@H](C(=O)O)N1; azaGly = NNC(=O)O

Columns and labels:
Format in all cases: cell-based, human
KB-3.1 cancer cells = test: Cell proliferation assay under folate free conditions (MTT); details: KB-3.1, folate receptor-positive, read-out: Antiproliferative activity IC50 of folate-ratjadone conjugates
Experimental: Cell proliferation assay under folate free conditions
KB 3.1 (DSMZ ACC 158) cells were cultivated at 37 °C and 10 % CO2 in RMPI-medium without folic acid (Gibco) with 10% fetal calf serum (Gibco). 120 µL of suspended cells (100.000/mL) were seeded in wells of 96-well plates and after 24 h at 37 °C and 10 % CO2 the medium was removed, the cells were washed with PBS and RPMI-medium without folic acid (Gibco) + 10% dialyzed fetal calf serum (Sigma) were added to the cells, before after additional 24 h at 37°C and 10 % CO2 60 µL of serial dilutions of the test compound were given to cells. After 1, 2 and 5 days of incubation growth inhibition (IC50) was determined using an […]

A-549 = test: cells
Experimental: (§1) Biological evaluation of the compounds […]
(§2) serial dilutions of the test compound were given to 120 µL of suspended cells (50.000/mL) in wells of 96-well plates. After 5 days of incubation growth inhibition (IC50) was determined using an MTT assay.9
(§3) Table S1:Medium conditions for different cell types.
(§4) Cell type Medium Additives
(§5) L-929 (DSMZ ACC 2) DME medium (high glucose) (Gibco) 10% fetal calf serum (Gibco) SKOV-3 DSMZ ATCC HTB Mc Coys-Medium (Gibco) 10% fetal calf serum (Gibco) […]
(§6) A549 (DSMZ ACC 107) DME medium (high glucose) (Gibco) 10% fetal calf serum (Gibco)

MCF-7 = test: cells
Experimental: as §1, §2, §3, §4, §5, §6

SK-OV-3 = test: cells
Experimental: as §1, §2, §3, §4, §5, §6

KB-3.1 = test: cells
Experimental: as §1, §2, §3, §4, §5, §6

[1] = A-549 human lung carcinoma, read-out: Antiproliferative activity IC50
[2] = Homo sapiens, A549, read-out: Antiproliferative activity IC50, A-549 human lung carcinoma
[3] = Homo sapiens, MCF7, read-out: Antiproliferative activity IC50, MCF-7 human breast carcinoma
[4] = Homo sapiens, SK-OV-3, read-out: Antiproliferative activity IC50
[5] = Homo sapiens, KB 3-1, read-out: Antiproliferative activity IC50, KB-3.1 human cervix carcinoma

For `C/C=C/[C@@H]1O[C@H]([C@@H](/C=C/C=C(\C)C[C@@H](C)/C=C(C)\C=C\[C@H]2CC=CC(=O)O2)NC(=O)OCc2ccc(NC(=O)[C@H](CCCNC(N)=O)NC(=O)[C@@H](NC(=O)OCC3C4CCc5nnn(CCC[C@H](NC(=O)[C@@H](CC(=O)O)NC(=O)[C@@H](CC(=O)O)NC(=O)[C@@H](CC(=O)O)NC(=O)CC[C@H](NC(=O)c6ccc(NCc7cnc8nc(N)nc(O)c8n7)cc6)C(=O)O)C(=O)N[C@H](CC(=O)O)C(=O)N[C@H](CC(=O)O)C(=O)N[C@H](CCCCN)C(=O)O)c5CCC43)C(C)C)cc2)C[C@@H](O)[C@@H]1C` (stereo partly drawn) [FA-10-Val-Cit-pABA-16R-aminoratjadone], the IC50 (KB-3.1 cancer cells) was 35.3 nM.

In the case of `C/C=C/[C@@H]1O[C@H]([C@@H](/C=C/C=C(\C)C[C@@H](C)/C=C(C)\C=C\[C@H]2CC=CC(=O)O2)NC(=O)OCc2ccc(NC(=O)[C@H](CCCNC(N)=O)NC(=O)[C@@H](NC(=O)OCC3C4CCc5nnn(CCC[C@@H](NC(=O)[C@H](Cc6ccc(O)cc6)NC(=O)[C@H](CO)NC(=O)[C@H](Cc6c[nH]c7ccccc67)NC(=O)[C@H](Cc6c[nH]cn6)NC(=O)[C@@H]6CCC(=O)N6)C(=O)N[C@@H](CC(C)C)C(=O)N[C@@H](CCCNC(=N)N)C(=O)N6CCC[C@H]6C(=O)NNC(N)=O)c5CCC43)C(C)C)cc2)C[C@@H](O)[C@@H]1C` (stereo partly drawn) ([pGlu]HWSY[X1]([Val-Cit-PABC-X2])LRP[azaGly]-NH2), the IC50 (A-549; [1]) is reported as 12.8 nM.

`C/C=C/[C@@H]1O[C@H]([C@@H](/C=C/C=C(\C)C[C@@H](C)/C=C(C)\C=C\[C@H]2CC=CC(=O)O2)NC(=O)OCCc2cn(-c3ccc(C(=O)NCCCC[C@H](NC(=O)CC[C@H](NC(=O)CC[C@H](NC(=O)c4ccc(NCc5cnc6nc(N)nc(O)c6n5)cc4)C(=O)O)C(=O)O)C(=O)O)cc3)nn2)C[C@@H](O)[C@@H]1C` [FA-6-L-16R-aminoratjadone] showed an IC50 (KB-3.1 cancer cells; listed as FA-6-L-16R-Aminoratjadone) of 150 nM and an IC50 (KB-3.1 cancer cells) of 150 nM.

Molecule `C/C=C/[C@@H]1O[C@H]([C@@H](/C=C/C=C(\C)C[C@@H](C)/C=C(C)\C=C\[C@H]2CC=CC(=O)O2)NC(=O)OCc2ccc(NC(=O)[C@H](CCCNC(N)=O)NC(=O)[C@@H](NC(=O)OC[C@@H]3[C@@H]4CCc5nnn(-c6ccc(C(=O)NCCCC[C@H](NC(=O)CC[C@H](NC(=O)c7ccc(NCc8cnc9nc(N)nc(O)c9n8)cc7)C(=O)O)C(=O)N[C@H](CCCCN)C(=O)O)cc6)c5CC[C@@H]43)C(C)C)cc2)C[C@@H](O)[C@@H]1C` [FA-8-Val-Cit-pABA-16R-aminoratjadone] has an IC50 (KB-3.1 cancer cells) of 39.9 nM.

With `C/C=C/[C@@H]1O[C@H]([C@@H](/C=C/C=C(\C)C[C@@H](C)/C=C(C)\C=C\[C@H]2CC=CC(=O)O2)NC(=O)OCc2ccc(NC(=O)[C@H](CCCNC(N)=O)NC(=O)[C@@H](NC(=O)OCCc3cn(CCC[C@H](NC(=O)[C@H](Cc4ccc(O)cc4)NC(=O)[C@H](CO)NC(=O)[C@H](Cc4c[nH]c5ccccc45)NC(=O)[C@H](Cc4c[nH]cn4)NC(=O)[C@@H]4CCC(=O)N4)C(=O)N[C@@H](CC(C)C)C(=O)N[C@@H](CCCNC(=N)N)C(=O)N4CCC[C@H]4C(=O)NCC(N)=O)nn3)C(C)C)cc2)C[C@@H](O)[C@@H]1C` the IC50 (A-549; [1]) was 1200 nM.

`C/C=C/[C@@H]1O[C@H]([C@@H](/C=C/C=C(\C)C[C@@H](C)/C=C(C)\C=C\[C@H]2CC=CC(=O)O2)NC(=O)OCc2ccc(NC(=O)[C@H](CCCNC(N)=O)NC(=O)[C@@H](NC(=O)OCC3C4CCc5nnn(-c6ccc(C(=O)NCCCC[C@H](NC(=O)CC[C@H](NC(=O)CC[C@H](NC(=O)c7ccc(NCc8cnc9nc(N)[nH]c(=O)c9n8)cc7)C(=O)O)C(=O)O)C(=O)OC)cc6)c5CCC43)C(C)C)cc2)C[C@@H](O)[C@@H]1C` (stereo partly drawn) [FA-1-Val-Cit-pABA-16R-aminoratjadone] showed an IC50 (KB-3.1 cancer cells; listed as FA-1-Val-Cit-pABA-16R-Aminoratjadone) of 169 nM and an IC50 (KB-3.1 cancer cells) of 169 nM.

Molecule `C#CCCOC(=O)N[C@@H](C(=O)NC(CCCNC(N)=O)C(=O)Nc1ccc(COC(=O)N[C@H](/C=C/C=C(\C)C[C@@H](C)/C=C(C)\C=C\[C@H]2CC=CC(=O)O2)[C@@H]2C[C@@H](O)[C@H](C)[C@H](/C=C/C)O2)cc1)C(C)C` (some centres unmarked) [Compound 26] has an IC50 (A-549; [1]) of 25.1 nM, an IC50 (A-549; Homo sapiens, A549, A-549 human lung carcinoma, read-out: Antiproliferative activity IC50) of 25.1 nM and an IC50 (MCF-7; Homo sapiens, MCF7, MCF-7 human breast carcinoma, read-out: Antiproliferative activity IC50) of 12.5 nM. For the same molecule, the IC50 (MCF-7; MCF-7 human breast carcinoma, read-out: Antiproliferative activity IC50) was 12.5 nM, the IC50 (SK-OV-3; Homo sapiens, SK-OV-3, SK-OV-3 human ovarian carcinoma, read-out: Antiproliferative activity IC50) was 13.6 nM and the IC50 (SK-OV-3; SK-OV-3 human ovarian carcinoma, read-out: Antiproliferative activity IC50) was 13.6 nM. The IC50 (KB-3.1; KB 3-1, KB-3.1 human cervix carcinoma, read-out: Antiproliferative activity IC50) was 9.2 nM.

`CC(C)C[C@H](NC(=O)[C@@H](CCCN=[N+]=[N-])NC(=O)[C@H](Cc1ccc(O)cc1)NC(=O)[C@H](CO)NC(=O)[C@H](Cc1c[nH]c2ccccc12)NC(=O)[C@H](Cc1c[nH]cn1)NC(=O)[C@@H]1CCC(=O)N1)C(=O)N[C@@H](CCCNC(=N)N)C(=O)N1CCC[C@H]1C(=O)NCC(N)=O` [D-Orn-N3-LHRH] gave an IC50 (A-549) of 318 nM, an IC50 (MCF-7) of 47.4 nM and an IC50 (SK-OV-3) of 190 nM. It also gave an IC50 (KB-3.1) of 1110 nM.

`C/C=C/[C@@H]1O[C@H]([C@@H](/C=C/C=C(\C)C[C@@H](C)/C=C(C)\C=C\[C@H]2CC=CC(=O)O2)NC(=O)OCc2ccc(NC(=O)[C@H](CCCNC(N)=O)NC(=O)[C@@H](NC(=O)OCC3C4CCc5nnn(CCC[C@@H](NC(=O)[C@H](Cc6ccc(O)cc6)NC(=O)[C@H](CO)NC(=O)[C@H](Cc6c[nH]c7ccccc67)NC(=O)[C@H](Cc6c[nH]cn6)NC(=O)[C@@H]6CCC(=O)N6)C(=O)N[C@@H](CC(C)C)C(=O)N[C@@H](CCCNC(=N)N)C(=O)N6CCC[C@H]6C(=O)NCC(N)=O)c5CCC43)C(C)C)cc2)C[C@@H](O)[C@@H]1C` (some centres unmarked) gave an IC50 (A-549; [1]) of 23 nM.

`C/C=C/[C@@H]1O[C@H]([C@@H](/C=C/C=C(\C)C[C@@H](C)/C=C(C)\C=C\[C@H]2CC=CC(=O)O2)NC(=O)OCc2ccc(NC(=O)[C@H](CCCNC(N)=O)NC(=O)[C@@H](NC(=O)OC[C@@H]3[C@@H]4CCc5nnn(CCC[C@H](NC(=O)CC[C@H](NC(=O)CC[C@H](NC(=O)c6ccc(NCc7cnc8nc(N)nc(O)c8n7)cc6)C(=O)O)C(=O)O)C(=O)O)c5CC[C@@H]43)C(C)C)cc2)C[C@@H](O)[C@@H]1C` [FA-7-Val-Cit-pABA-16R-aminoratjadone] gave an IC50 (KB-3.1 cancer cells) of 34.3 nM.

With `C#CCCC(=O)NCCSSCCC(=O)N[C@H](/C=C/C=C(\C)C[C@@H](C)/C=C(C)\C=C\[C@H]1CC=CC(=O)O1)[C@@H]1C[C@@H](O)[C@H](C)[C@H](/C=C/C)O1` [Compound 29, HCC(CH2)2(CO)-NH-(CH2)2SS(CH2)2(CO)-16R-Aminoratjadone] the IC50 (A-549; [2]) was 0.86 nM, the IC50 (MCF-7; [3]) was 0.17 nM and the IC50 (SK-OV-3; [4]) was 1.09 nM. The IC50 (KB-3.1; [5]) was 1.86 nM.

In the case of `C/C=C/[C@@H]1O[C@H]([C@@H](/C=C/C=C(\C)C[C@@H](C)/C=C(C)\C=C\[C@H]2CC=CC(=O)O2)NC(=O)OCCc2cn(-c3ccc(C(=O)NCCCC[C@H](NC(=O)CC[C@H](NC(=O)c4ccc(NCc5cnc6nc(N)[nH]c(=O)c6n5)cc4)C(=O)O)C(=O)N[C@@H](CCCCN)C(=O)O)cc3)nn2)C[C@@H](O)[C@@H]1C` [FA-8-L-16R-aminoratjadone], the IC50 (KB-3.1 cancer cells; listed as FA-8-L-16R-Aminoratjadone) is reported as 129 nM and the IC50 (KB-3.1 cancer cells) is reported as 129 nM.

Molecule `C/C=C/[C@@H]1O[C@H]([C@@H](/C=C/C=C(\C)C[C@@H](C)/C=C(C)\C=C\[C@H]2CC=CC(=O)O2)NC(=O)OCCc2cn(CCC[C@H](NC(=O)[C@H](Cc3ccc(O)cc3)NC(=O)[C@H](CO)NC(=O)[C@H](Cc3c[nH]c4ccccc34)NC(=O)[C@H](Cc3c[nH]cn3)NC(=O)[C@@H]3CCC(=O)N3)C(=O)N[C@@H](CC(C)C)C(=O)N[C@@H](CCCNC(=N)N)C(=O)N3CCC[C@H]3C(=O)NCC(N)=O)nn2)C[C@@H](O)[C@@H]1C` [L-Orn-LHRH-16R-aminoratjadone] has an IC50 (A-549; [1]) of 1600 nM.

`C#CCCOC(=O)NC1C[C@@H]([C@H](O)/C=C/C=C(\C)C[C@@H](C)/C=C(C)\C=C\[C@H]2CC=CC(=O)O2)O[C@@H](/C=C/C)[C@H]1C` (some centres unmarked) [Compound 34] was tested, and the IC50 (A-549; [2]) was 5.22 nM, the IC50 (MCF-7; [3]) was 3.1 nM and the IC50 (SK-OV-3; [4]) was 4.22 nM. The IC50 (KB-3.1; [5]) was 7.23 nM.
